The target of experiment [1] is T1, Human PD-L1/PD-1 (Homo sapiens, UniProt Q9NZQ7).
T1 construct: made in house; host or cells: HEK293T
Put plainly: HTRF PD-1-Ig/PD-L1-His binding assay (human PD-L1). To be noted: cluster symbol; read-out: HTRF IC50 cluster. The method in brief: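 Soluble Fc-fused PD-1 and His-tagged PD-L1 (truncated before the transmembrane region) were combined in dPBS with 0.1% (w/v) BSA and 0.05% (v/v) Tween-20. Binding was read by HTRF using europium cryptate anti-Ig antibody (1 nM final) and APC anti-His antibody (20 nM final).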
On the technique in general: In TR-FRET formats the signal depends on donor and acceptor labels being close together.

The target in experiment [2] is T2, LK35.2-hPD-L1 cells / PE-labeled PD-1-Ig (Homo sapiens, UniProt Q9NZQ7).
T2 construct: expressed in transfected cells; host or cells: LK35.2 mouse B cell line
Briefly: LK35.2-hPD-L1 cell binding high-content screening assay. In kind it is cell-based. The note with it: cluster symbol, read-out: CBA IC50 cluster. In outline:
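Readout: high-content imaging of PE-PD-1-Ig bound to LK35.2-hPD-L1 cells. Cells plated overnight (RPMI/10% FCS); compound + 1 nM PE-PD-1-Ig, 1 h, 37 °C; 3× dPBS wash before imaging.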

Setting [3] is: cell binding assay, cell line not given.
Where [4] appears, read: cell line of CBA not given (LK35.2-hPD-L1 or 293T-hPD-L1).

The structures appear in SMILES notation. Where two headings read alike, the source gives them in different places. Positions of bridges follow the written chain, without caps; N, C: chain ends. Non-standard residues stand in square brackets, D forms with d. Residues, ends and D or L forms follow the SMILES beside them. ξ: configuration not given here. Phe(3,4,5-F3) = N[C@@H](Cc1cc(F)c(F)c(F)c1)C(=O)O; Phe(3-F) = N[C@@H](Cc1cccc(F)c1)C(=O)O; Bta = N[C@@H](Cc1csc2ccccc12)C(=O)O; Hyp = O=C(O)[C@@H]1C[C@@H](O)CN1; NMeF = CN[C@@H](Cc1ccccc1)C(=O)O; Pip(4-aza) = O=C(O)[C@@H]1CNCCN1; dHyp = O=C(O)[C@H]1C[C@H](O)CN1; NMeNle = CCCC[C@H](NC)C(=O)O; dPip = O=C(O)[C@H]1CCCCN1; hSer = N[C@@H](CCO)C(=O)O; NMeA = CN[C@@H](C)C(=O)O; Orn = NCCC[C@H](N)C(=O)O; Dab = NCC[C@H](N)C(=O)O; Dap = NC[C@H](N)C(=O)O; ξC = NC(CS)C(=O)O; Sar = CNCC(=O)O

IC50 data for seven compounds are collected here from patent publication US9850283B2, “Macrocyclic inhibitors of the PD-1/PD-L1 and CD80(B7-1)/PD-L1 protein/protein interactions” (BRISTOL-MYERS SQUIBB COMPANY, priority 2013, dated 2017).

One may read the IC50 as the point on the concentration scale where inhibition reaches its midpoint.

T2 sequence (Q9NZQ7 19-290): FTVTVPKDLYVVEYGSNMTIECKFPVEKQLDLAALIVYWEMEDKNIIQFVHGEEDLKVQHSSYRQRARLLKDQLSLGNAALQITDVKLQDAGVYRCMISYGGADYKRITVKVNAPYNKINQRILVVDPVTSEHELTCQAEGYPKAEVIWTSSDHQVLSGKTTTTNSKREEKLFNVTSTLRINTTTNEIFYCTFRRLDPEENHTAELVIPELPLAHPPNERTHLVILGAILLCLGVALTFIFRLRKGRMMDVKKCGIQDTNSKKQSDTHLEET
T1 sequence (Q9NZQ7 with tags, fused parts or gaps): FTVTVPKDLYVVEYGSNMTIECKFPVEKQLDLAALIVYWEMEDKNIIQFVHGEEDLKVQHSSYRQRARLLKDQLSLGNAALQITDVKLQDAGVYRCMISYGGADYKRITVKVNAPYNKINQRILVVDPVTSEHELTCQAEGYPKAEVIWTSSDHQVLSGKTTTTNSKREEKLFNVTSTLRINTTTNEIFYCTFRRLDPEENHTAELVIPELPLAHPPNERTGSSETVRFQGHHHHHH

With `CCCC[C@H]1C(=O)N(C)[C@@H](CCCC)C(=O)N[C@@H](CCCNC(=N)N)C(=O)NC(C(=O)NCC(N)=O)CSCC(=O)N[C@@H](Cc2ccc(O)cc2)C(=O)N(C)[C@@H](C)C(=O)N[C@@H](CC(N)=O)C(=O)N2CCC[C@H]2C(=O)N[C@@H](Cc2cnc[nH]2)C(=O)N[C@@H](CO)C(=O)N2CCC[C@H]2C(=O)N[C@@H](Cc2c[nH]c3ccccc23)C(=O)N[C@@H](CO)C(=O)N[C@@H](Cc2c[nH]c3ccccc23)C(=O)N1C` (some centres unmarked) [Example 9067] ({CH2CO}-Y[NMeA]NPHSPWSW[NMeNle][NMeNle]R[ξC]G-NH2; thioether N-14), the values for the IC50 in experiment [1] and in experiment [2] (setting [3]) were 0.385 to 6.74 nM and 0.158 to 4.71 nM, respectively.
Take `CCCC[C@H]1C(=O)N2C[C@@H](O)C[C@@H]2C(=O)N[C@@H](CC(N)=O)C(=O)N[C@@H](C(C)C)C(=O)N(C)[C@@H](Cc2ccccc2)C(=O)N[C@@H](Cc2ccc(O)cc2)C(=O)N2CCCC[C@@H]2C(=O)N[C@@H](Cc2c[nH]c3ccccc23)C(=O)N[C@@H](Cc2ccc(O)cc2)C(=O)N[C@@H](CCCN)C(=O)N[C@H](C(=O)NCC(N)=O)CSCC(=O)N[C@@H](Cc2cc(F)c(F)c(F)c2)C(=O)N(C)[C@@H](Cc2ccccc2)C(=O)N1C` [Example 3613] ({CH2CO}-[Phe(3,4,5-F3)][NMeF][NMeNle][dHyp]NV[NMeF]Y[dPip]WY[Orn]CG-NH2; thioether N-13): the IC50 was in the range of 0.385 to 6.74 nM in experiment [1] and 0.158 to 4.71 nM in experiment [2] (setting [3]).
`CCCC[C@H]1C(=O)N(C)[C@@H](CCCC)C(=O)N[C@@H](C)C(=O)N[C@H](C(=O)NCC(N)=O)CSCC(=O)N[C@@H](Cc2ccc(O)cc2)C(=O)N(C)[C@@H](C)C(=O)N[C@@H](CC(=O)O)C(=O)N2CCC[C@H]2C(=O)N[C@@H](Cc2cnc[nH]2)C(=O)N[C@@H](CCCN)C(=O)N2C[C@H](O)C[C@H]2C(=O)N[C@@H](Cc2c[nH]c3ccccc23)C(=O)N[C@@H](CO)C(=O)N[C@@H](Cc2c[nH]c3ccccc23)C(=O)N1C` [Example 1140] ({CH2CO}-Y[NMeA]DPH[Orn][Hyp]WSW[NMeNle][NMeNle]ACG-NH2; thioether N-14): the IC50 lay within 0.385 to 6.74 nM in experiment [1] and 0.158 to 4.71 nM in experiment [2] (setting [4]).
Consider `CCCC[C@H]1C(=O)N(C)[C@@H](CCCC)C(=O)N[C@@H](CCN)C(=O)N[C@H](C(=O)NCC(N)=O)CSCC(=O)N[C@@H](Cc2ccc(O)cc2)C(=O)N(C)[C@@H](C)C(=O)N[C@@H](CC(N)=O)C(=O)N2CCC[C@H]2C(=O)N[C@@H](Cc2cnc[nH]2)C(=O)N[C@@H](CCC(=O)O)C(=O)N2C[C@H](O)C[C@H]2C(=O)N[C@@H](Cc2c[nH]c3ccccc23)C(=O)N[C@@H](CCN)C(=O)N[C@@H](Cc2c[nH]c3ccccc23)C(=O)N1C` [Example 5028] ({CH2CO}-Y[NMeA]NPHE[Hyp]W[Dab]W[NMeNle][NMeNle][Dab]CG-NH2; thioether N-14), for which the IC50 in experiment [1] lay within 0.385 to 6.74 nM; in experiment [2] (setting [3]), 0.158 to 4.71 nM.
The like results for `CCCC[C@H]1C(=O)N(C)[C@@H](CCCC)C(=O)N[C@@H](CC(C)C)C(=O)N[C@H](C(=O)NCC(N)=O)CSCC(=O)N[C@@H](Cc2ccc(O)cc2)C(=O)N(C)[C@@H](C)C(=O)N[C@@H](CC(N)=O)C(=O)N2CCC[C@H]2C(=O)N[C@@H](CN)C(=O)N[C@@H](CC(C)C)C(=O)N2CCNC[C@H]2C(=O)N[C@@H](Cc2c[nH]c3ccccc23)C(=O)N[C@@H](CCN)C(=O)N[C@@H](Cc2c[nH]c3ccccc23)C(=O)N1C` [Example 6050] ({CH2CO}-Y[NMeA]NP[Dap]L[Pip(4-aza)]W[Dab]W[NMeNle][NMeNle]LCG-NH2; thioether N-14) were, in that order, 0.385 to 6.74 nM and 4.78 to 72.9 nM.
For `CCCC[C@H]1C(=O)N(C)CC(=O)N[C@@H](CC(=O)O)C(=O)N[C@@H](C(C)C)C(=O)N(C)[C@@H](Cc2ccccc2)C(=O)N[C@@H](Cc2ccc(O)cc2)C(=O)N(C)CC(=O)N[C@@H](Cc2c[nH]c3ccccc23)C(=O)N[C@@H](Cc2ccc(O)cc2)C(=O)N[C@@H](CC(C)C)C(=O)N[C@H](C(=O)NCC(N)=O)CSCC(=O)N[C@@H](Cc2cccc(F)c2)C(=O)N(C)[C@@H](Cc2ccccc2)C(=O)N1C` [Example 3125] ({CH2CO}-[Phe(3-F)][NMeF][NMeNle][Sar]DV[NMeF]Y[Sar]WYLCG-NH2; thioether N-13), the figures for the half-maximal inhibitory concentration (IC50) in experiment [1] and in experiment [2] (setting [4]) were 6.76 to 30.3 nM and 0.158 to 4.71 nM, respectively.
Regarding `CCCC[C@H]1C(=O)N(C)[C@@H](CCCC)C(=O)N[C@@H](CCCNC(=N)N)C(=O)NC(C(=O)NCC(N)=O)CSCC(=O)N[C@@H](Cc2ccc(O)cc2)C(=O)N(C)[C@@H](C)C(=O)N[C@@H](CC(N)=O)C(=O)N2CCC[C@H]2C(=O)N[C@@H](Cc2cnc[nH]2)C(=O)N[C@@H](CC(C)C)C(=O)N2CCC[C@H]2C(=O)N[C@@H](Cc2c[nH]c3ccccc23)C(=O)N[C@@H](CCO)C(=O)N[C@@H](Cc2csc3ccccc23)C(=O)N1C` (some centres unmarked) [Example 9052] ({CH2CO}-Y[NMeA]NPHLPW[hSer][Bta][NMeNle][NMeNle]R[ξC]G-NH2; thioether N-14), the half-inhibitory concentration (IC50) lay in the range of 0.385 to 6.74 nM in experiment [1] and 0.158 to 4.71 nM in experiment [2] (setting [3]).
